Measurements: ChEMBL document CHEMBL3785043, “Exploring the purine core of 3'-C-ethynyladenosine (EAdo) in search of novel nucleoside therapeutics” (Bioorg Med Chem Lett, 2016)
Active and inactive are the calls of the source. The calls are words filed in the database; no cut-off is given here.

Assays:
[1] = tested on: Human immunodeficiency virus 1; assay: Antiviral activity against HIV1 3B infected in human MT4 cells at 100 uM preincubated with cells for 30 mins followed by HIV inoculation measured after 4 to 5 days by microscopic analysis; format: functional, organism-based
[2] = tested on: Vesicular stomatitis virus; assay: Antiviral activity against VSV at 100 uM; format: functional, organism-based
[3] = tested on: Human betaherpesvirus 5; assay: Antiviral activity against Human cytomegalovirus Davis at 100 uM; format: functional, organism-based
[4] = tested on: Human alphaherpesvirus 2; assay: Antiviral activity against HSV-2 lyons at 100 uM; format: functional, organism-based
[5] = tested on: Human alphaherpesvirus 1; assay: Antiviral activity against Aciclovir-resistant thymidine kinase-deficient HSV-1 KOS at 100 uM; format: functional, organism-based
[6] = tested on: Mammalian orthoreovirus 1; assay: Antiviral activity against Reovirus 1 at 100 uM; format: functional
[7] = tested on: Human betaherpesvirus 5; assay: Antiviral activity against Human cytomegalovirus AD169 at 100 uM; format: functional, organism-based
[8] = tested on: Human alphaherpesvirus 2; assay: Antiviral activity against HSV-2 G at 100 uM; format: functional, organism-based; details: strain G
[9] = tested on: Sindbis virus; assay: Antiviral activity against Sindbis virus at 100 uM; format: functional, organism-based
[10] = tested on: HeLa; assay: Cytostatic activity against human HeLa cells after 72 hrs by Coulter counter method; format: functional, cell-based
[11] = tested on: Coxsackievirus B4; assay: Antiviral activity against Coxsackie B4 virus at 100 uM; format: functional, organism-based
[12] = tested on: Human adenovirus 2; assay: Antiviral activity against Adenovirus 2 at 100 uM; format: functional, organism-based
[13] = tested on: Human alphaherpesvirus 1; assay: Antiviral activity against HSV-1 KOS at 100 uM; format: functional, organism-based
[14] = tested on: Influenza B virus; assay: Antiviral activity against Influenza virus B at 100 uM; format: functional, organism-based
[15] = tested on: Human respirovirus 3; assay: Antiviral activity against parainfluenza virus 3 at 100 uM; format: functional, organism-based
[16] = tested on: Respiratory syncytial virus; assay: Antiviral activity against Respiratory syncytial virus long at 100 uM; format: functional, organism-based
[17] = tested on: L1210; assay: Cytostatic activity against mouse L1210 cells after 48 hrs by Coulter counter method; format: functional, cell-based; details: L1210, 48 h
[18] = tested on: Influenza A virus; assay: Antiviral activity against Influenza virus A H3N2 at 100 uM; format: functional, organism-based
[19] = tested on: Human immunodeficiency virus 1; assay: Antiviral activity against HIV 1 NL4-3 infected in human MT4 cells at 100 uM preincubated with cells for 30 mins followed by HIV inoculation measured after 4 to 5 days by microscopic analysis; format: functional, organism-based
[20] = tested on: CCRF-CEM; assay: Cytostatic activity against human CEM cells after 72 hrs by Coulter counter method; format: functional, cell-based
[21] = tested on: Influenza A virus; assay: Antiviral activity against Influenza virus A H1N1 at 100 uM; format: functional, organism-based
[22] = tested on: Human immunodeficiency virus 2; assay: Antiviral activity against HIV2 ROD infected in human MT4 cells at 100 uM preincubated with cells for 30 mins followed by HIV inoculation measured after 4 to 5 days by microscopic analysis; format: functional, organism-based; details: ISOLATE ROD
[23] = tested on: Punta Toro virus; assay: Antiviral activity against Punta Toro virus at 100 uM; format: functional, organism-based
[24] = tested on: Vaccinia virus; assay: Antiviral activity against Vaccinia virus Lederle; format: functional, organism-based; details: Orthopoxvirus vaccinia
[25] = target: Adenosine receptor A3 (Homo sapiens) (UniProt P0DMS8); assay: Agonist activity at adenosine A3 receptor (unknown origin) assessed as inhibition of forskolin-stimulated adenylyl cyclase activity at 10 uM; format: functional
[26] = tested on: Human alphaherpesvirus 3; assay: Antiviral activity against VZV Oka; format: functional, organism-based; details: Human alphaherpesvirus 3, strain Oka vaccine
[27] = tested on: Human alphaherpesvirus 3; assay: Antiviral activity against thymidine kinase deficient VZV 07-1; format: functional, organism-based; details: Human alphaherpesvirus 3, 07-1

Adenosine receptor A3 (Homo sapiens), sequence (P0DMS8 whole entry): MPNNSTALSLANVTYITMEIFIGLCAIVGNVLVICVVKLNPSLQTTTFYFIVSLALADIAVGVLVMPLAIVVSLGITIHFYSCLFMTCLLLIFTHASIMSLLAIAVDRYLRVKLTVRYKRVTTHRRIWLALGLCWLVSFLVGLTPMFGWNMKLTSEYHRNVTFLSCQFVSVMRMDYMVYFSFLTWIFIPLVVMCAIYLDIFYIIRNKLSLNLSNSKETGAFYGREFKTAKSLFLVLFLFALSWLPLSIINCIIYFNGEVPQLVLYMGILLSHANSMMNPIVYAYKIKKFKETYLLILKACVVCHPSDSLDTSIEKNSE

| SMILES | Activity [1] | Activity [2] | Activity [3] | Activity [4] | Activity [5] | Activity [6] | Activity [7] | Activity [8] | Activity [9] | IC50 [10] [µM] | Activity [11] | Activity [12] | Activity [13] | Activity [14] | Activity [15] | Activity [16] | IC50 [17] [µM] | Activity [18] | Activity [19] | IC50 [20] [µM] | also measured |
| --- | --- | --- | --- | --- | --- | --- | --- | --- | --- | --- | --- | --- | --- | --- | --- | --- | --- | --- | --- | --- | --- |
| C#C[C@@]1(O)[C@@H](CO)O[C@@H](n2cnc3c(N)nc(Cl)nc32)[C@@H]1O | inactive | inactive | inactive | inactive | inactive | inactive | inactive | inactive | inactive | > 250 | inactive | inactive | inactive | inactive | inactive | inactive | 167 | inactive | inactive | > 250 | Activity [21]: inactive; Activity [22]: inactive; Activity [23]: inactive |
| C#C[C@@]1(O)[C@@H](CO)O[C@@H](n2cnc3c(N)ncnc32)[C@@H]1O | inactive | inactive | inactive | inactive | inactive | inactive | inactive | inactive | inactive | 0.29 | inactive | inactive | inactive | inactive | inactive | inactive | 0.73 | inactive | inactive | 0.61 | EC50 [24]: 0.35 µM; Activity [21]: inactive; Activity [22]: inactive; Activity [23]: inactive |
| C#C[C@@]1(O)[C@@H](CO)O[C@@H](n2cnc3c(NC4CCCC4)nc(Cl)nc32)[C@@H]1O | inactive | inactive | inactive | inactive | inactive | inactive | inactive | inactive | inactive | 150 | inactive | inactive | inactive | inactive | inactive | inactive | 170 | inactive | inactive | 104 | inhibition [25]: 70%; Activity [21]: inactive; Activity [22]: inactive; Activity [23]: inactive |
| C#C[C@@]1(O)[C@@H](CO)O[C@@H](n2cnc3c(Cl)nc(N)nc32)[C@@H]1O | inactive | inactive | inactive | inactive | inactive | inactive | inactive | inactive | inactive | > 250 | inactive | inactive | inactive | inactive | inactive | inactive | > 250 | inactive | inactive | > 250 | EC50 [24]: 51 µM; Activity [21]: inactive; Activity [22]: inactive; Activity [23]: inactive |
| C#C[C@@]1(O)[C@@H](CO)O[C@@H](n2cnc3c(OC)nc(OC)nc32)[C@@H]1O | inactive | inactive | inactive | inactive | inactive | inactive | inactive | inactive | inactive | > 250 | inactive | inactive | inactive | inactive | inactive | inactive | > 250 | inactive | inactive | > 250 | Activity [21]: inactive; Activity [22]: inactive; Activity [23]: inactive |
| C#C[C@@]1(O)[C@@H](CO)O[C@@H](n2cnc3c(NCc4cccc(Cl)c4)nc(Cl)nc32)[C@@H]1O | inactive | inactive | inactive | inactive | inactive | inactive | inactive | inactive | inactive | 43 | inactive | inactive | inactive | inactive | inactive | inactive | 50 | inactive | inactive | 22 | inhibition [25]: 48%; EC50 [26]: 4.68 µM; EC50 [27]: 4.68 µM; Activity [21]: inactive; Activity [22]: inactive; Activity [23]: inactive |
| C#C[C@@]1(O)[C@@H](CO)O[C@@H](n2cnc3c(OC)nc(N)nc32)[C@@H]1O | inactive | inactive | inactive | inactive | inactive | inactive | inactive | inactive | inactive | > 250 | inactive | inactive | inactive | inactive | inactive | inactive | > 250 | inactive | inactive | > 250 | Activity [21]: inactive; Activity [22]: inactive; Activity [23]: inactive |
| C#C[C@@]1(O)[C@@H](CO)O[C@@H](n2cnc3c(N)nc(N)nc32)[C@@H]1O | inactive | inactive | inactive | inactive | inactive | inactive | inactive | inactive | inactive | 123 | inactive | inactive | inactive | inactive | inactive | inactive | 193 | inactive | inactive | ≥ 250 | Activity [21]: inactive; Activity [22]: inactive; Activity [23]: inactive |
| C#C[C@@]1(O)[C@@H](CO)O[C@@H](n2cnc3c(OC)nc(Cl)nc32)[C@@H]1O | inactive | inactive | inactive | inactive | inactive | inactive | inactive | inactive | inactive | 175 | inactive | inactive | inactive | inactive | inactive | inactive | > 250 | inactive | inactive | 210 | Activity [21]: inactive; Activity [22]: inactive; Activity [23]: inactive |
